Target: T1, uterine OT receptors (Rattus norvegicus, UniProt P70536)
T1 construct: from tissue; host or cells: uterus of DES-treated rats, crude membrane preparation
T1 sequence (P70536 1-388): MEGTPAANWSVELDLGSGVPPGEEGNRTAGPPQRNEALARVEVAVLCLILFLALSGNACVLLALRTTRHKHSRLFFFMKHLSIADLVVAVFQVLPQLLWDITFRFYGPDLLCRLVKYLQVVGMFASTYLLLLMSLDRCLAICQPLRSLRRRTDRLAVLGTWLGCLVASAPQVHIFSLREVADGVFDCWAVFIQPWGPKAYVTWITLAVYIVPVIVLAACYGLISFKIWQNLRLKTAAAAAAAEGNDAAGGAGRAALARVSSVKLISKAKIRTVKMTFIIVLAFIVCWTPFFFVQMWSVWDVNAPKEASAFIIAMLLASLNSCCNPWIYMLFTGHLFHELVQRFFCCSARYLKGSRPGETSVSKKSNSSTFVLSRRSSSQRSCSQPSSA
Test: [3H]Oxytocin radioligand binding assay, crude uterine membrane preparation
Set-up: species or system rats
Conditions: for IC50: competition with 1 nM [3H]OT, 60 minutes, 22 °C, membranes of uteri from DES-treated rats; for inhibition at 0.1 µM: at 100 nM compound; for inhibition at 0.1 µM / inhibition at 1 µM: 1 nM [3H]OT, rat uterine membranes; for inhibition at 1 µM: at 1,000 nM compound
Experimental: Oxytocin (OT)([tyrosyl, 3,5-[^3H]OT; 30-60 Ci/mmol; New England Nuclear. Boston, MA) to uterine OT receptors was based on an assay*using a crude membrane preparation of uteri taken from diethylstilbestrol dipropionate (DES)-treated (0.3 mg/kg, ip; 18-24) rats. Competetion studies were conducted at equilibrium (60 minutes; 22 °C) using 1 nM[^3H]OT in the following assay buffer: 50 mM Tris-HCI, 5 mM MgCl2, and 0.1% BSA, pH 7.4. Nonspecific binding (10% of the total binding) was determined using 1µM unlabeled OT and the binding reaction was terminated by filtration through glass fiber filters using a cell harvester (model 7019, Skatron, Inc., Sterling, VA).

IC50 [nM]	Structure (SMILES)	further results
150	Cc1ccccc1N1CCN(S(=O)(=O)CC23CCC(CC2(O)C(C)C#N)C3(C)C)CC1 (single isomer, unassigned) [Example 2, 1-((7,7-DIMETHYL-2-EXO-HYDROXY-2-ENDO-(1-CYANO)ETHYL-BICYCLO(2.2.1)HEPTAN-1-YL)-METHANESULFONYL)-4-(2-METHYL PHENYL)PIPERAZINE]	
180	Cc1ccccc1N1CCN(S(=O)(=O)CC23CCC(CC2(O)C(C)CN)C3(C)C)CC1 (single isomer, unassigned) [Example 3, 1-((7,7-DIMETHYL-2-EXO-HYDROXY-2-ENDO-2-(1-AMINO)PROPYL-BICYCLO(2.2.1 )HEPTAN-1-YL)-METHANESULFONYL)-4-(2-METHYLPHENYL)PIPERAZINE]	
1000	Cc1ccccc1N1CCN(S(=O)(=O)CC23CCC(CC2=O)C3(C)C)CC1 (stereo not drawn) [Example 1, 1-((7,7-DIMETHYL-2-OXO-BICYCLO(2.2.1)HEPTAN-1-YL) METHANESULFONYL)-4-(2-METHYLPHENYL)-PIPERAZINE]	
34	Cc1ccccc1N1CCN(S(=O)(=O)CC23CCC(CC2(O)C(C)CNC(=O)C2CCCN2)C3(C)C)CC1 (stereo not drawn) [Example 4]	
100	CCOC(=O)CCCN1CCCC1C(=O)NCC(C)C1(O)CC2CCC1(CS(=O)(=O)N1CCN(c3ccccc3C)CC1)C2(C)C [Example 5, 1-((7,7-DIMETHYL-2-EXO-HYDROXY-2-ENDO-2-(1-(L-N-(ETHOXYCARBONYLPROPYL)PROLYL)AMINO)-PROPYL-BICYCLO-(2.2.1)HEPTAN-1-YL)METHANESULFONYL)-4-(2-METHYLPHENYL) PIPERAZINE]	
10	Cc1ccccc1N1CCN(S(=O)(=O)CC23CCC(CC2(O)C(C)CNC(=O)C2CCCN2CCCC(=O)O)C3(C)C)CC1 [Example 6, 1-((7,7-DIMETHYL-2-EXO-HYDROXY-2-ENDO-2-(1-(L-N-(3-CARBOXYPROPYL)PROLYL)AMINO)PROPYL-BICYCLO(2.2.1) HEPTAN-1 -YL)METHANESULFONYL)-4-(2-METHYLPHENYL) PIPERAZINE]	
8	Cc1ccccc1N1CCN(S(=O)(=O)CC23CCC(CC2(O)C(C)CNC(=O)Cc2c[nH]cn2)C3(C)C)CC1 (stereo not drawn) [Example 7]	
	COC(=O)CCNCC(C)C1(O)CC2CCC1(CS(=O)(=O)N1CCN(c3ccccc3C)CC1)C2(C)C (stereo not drawn) [Example 10]	inhibition at 0.1 µM: 48%
54	COC(=O)CCN(CCC(=O)OC)CC(C)C1(O)CC2CCC1(CS(=O)(=O)N1CCN(c3ccccc3C)CC1)C2(C)C (stereo not drawn) [Example 11, 1-((7,7-dimethyl-2-exo-hydroxy-2-endo-2-(1-bis-(2-methoxycarbonylethyl)amino)propylbicyclo(2.2.1)heptan-1-yl)methanesulfonyl)-4-(2-methylphenyl)piperazine]	
	C=CC1(O)CC2CCC1(CS(=O)(=O)N1CCN(c3ccccc3C)CC1)C2(C)C (stereo not drawn) [Example 12, 1-((7,7-dimethyl-2-exo-hydroxy-2-endo-ethenyl-bicyclo(2.2.1)heptan-1-yl)methanesulfonyl)-4-(2-methylphenyl)piperazine]	inhibition at 0.1 µM: 23%
1100	Cc1ccccc1N1CCN(S(=O)(=O)CC23CCC(CC2=CCNCC(C)C)C3(C)C)CC1 (stereo not drawn) [Example 14, 1-((7,7-dimethyl-2-(2-isobutylamino)ethylidine-bicyclo (2.2.1)heptan-1-yl)methanesulfonyl)-4-(2-methylphenyl) piperazine]	
	Cc1ccccc1N1CCN(S(=O)(=O)CC23CCC(CC2=CCN=[N+]=[N-])C3(C)C)CC1 (stereo not drawn) [Example 15, 1-((7,7-dimethyl-2-(2-azido)ethylidine-bicyclo(2.2.1)heptan-1-yl)methanesulfonyl)-4-(2-methylphenyl)-piperazine]	inhibition at 1 µM: 44%
	Cc1ccccc1N1CCN(S(=O)(=O)CC23CCC(CC2=CCN)C3(C)C)CC1 (stereo not drawn) [Example 16, 1-((7,7-dimethyl-2-(2-amino)ethylidine-bicyclo(2.2.1)heptan-1-yl)methanesulfonyl)-4-(2-methylphenyl)-piperazine]	inhibition at 1 µM: 64%
	Cc1ccccc1N1CCN(S(=O)(=O)CC23CCC(CC24CO4)C3(C)C)CC1 (stereo not drawn) [Example 18]	inhibition at 1 µM: 75%

Structure (SMILES)	IC50 [nM]	further results
Cc1ccccc1N1CCN(S(=O)(=O)CC23CCC(CC2(O)C(C)CNC(=O)C2CN4CCC2CC4)C3(C)C)CC1 (stereo not drawn) [Example 8]	18	

Reference: patent EP0533240A2, “Substituted amine derivatives of piperazinylcamphorsulfonyl oxytocin antagonists” (MERCK & CO. INC., priority 1991, dated 1993)
